For this experiment, the target named is T1, human TSHR (Homo sapiens, UniProt P16473).
T1 construct: expressed in transfected cells
Briefly: Homogeneous Time Resolved Fluorescence (HTRF) cAMP assay, TSHR cell line. It is filed as cell-based. The conditions noted are these: for AC50: HTRF cAMP, TSHR cell line, 30 minute incubation, read-out: AC50; for Emax: read-out: Maximum Activity compared to TSH, 100% activity = response of 30 mU/ml TSH, 0% = DMSO control; for Maximum Activity compared to TSH: 100% activity = response of 30 mU/ml TSH, 0% = DMSO control, in %. The source says: Generation of Stable Cell-Lines Expressing TSHR, LHCGR or FSHR.
cDNA for human TSHR was amplified by PCR from hTSHR-pSVL (1) and inserted into the pcDNA3.1(−)/hygromycin vector using restriction sites XhoI and BamHI. cDNA for human LHCGR was amplified by PCR from hLHR-pGS5 (2) and was inserted into the pcDNA3.1(+)/hygromycin vector using restriction sites BamHI and XhoI. The FSHR cDNA in pcDNA3.1 was obtained from the Missouri S&T cDNA Resource Center (www.cDNA.org) and was subcloned into the pcDNA3.1(−)/hygromycin vector. Constructs were confirmed by sequencing (MWG Biotech). HEK-EM 293 cells were transfected with the cDNA of TSHR, LHCGR or FSHR using FuGENE 6 Transfection reagent (Roche Diagnostics) according to the manufacturer's protocol. Two days after transfection cells were passaged and grown in Dulbecco's modified Eagle's Medium (DMEM) supplemented with 10% fetal bovine serum, 100 units/ml penicillin and 10 μg/ml streptomycin (Life Technologies Inc.) and with hygromycin (250 μg/ml) as a selection marker. After 7 to 10 days hygromycin-resistant clones were selected, and after a few days of further growth submitted for a cAMP assay to identify clones that stably express the appropriate receptor. Cell Culture. Cells stably expressing TSHR, LHCGR or FSHR and parental HEK 293 cells were maintained in DMEM medium containing 10% FBS, 100 units/ml Penicillin, 100 μg/ml Streptomycin, at 37° C. in 5% CO2. For the cells lines stably expressing TSHR, LHCGR or FSHR, additional 250 μg/ml Hygromycin was added during the cell culture. The cells were seeded at a density of 3 to 4 million cells in a T175 flask containing 35 ml of media and were allowed to grow for 3 days to reach 80-90% confluence. A flask of HEK 293 cells at this density generally yielded 30 million cells total. Homogeneous Time Resolved Fluorescence (HTRF) cAMP Assay. Compounds were assayed using a HTRF cAMP detection kit (Cisbio, Bedford, Mass.) on both TSHR cell line and parental cell line. Briefly, 750 cells were plated in 2.5 μl/well of complete media (DMEM containing 10% FCS) in 1536 well solid bottom white plates and 20 nl/well compound in DMSO solution or controls was added. Following 30 minute incubation at room temperature, 2.5 μl/well of labeled d2 cAMP and 2.5 μl/well of anti-cAMP antibody (both diluted 1:20 in lysis buffer) were added to each well using a flying reagent dispenser (Aurora Discovery, San Diego). Plates were measured using the Envision plate reader (PerkinElmer, Boston, Mass.) with excitation at 330 nm and emissions of 615 nm and 660 nm. Compound Preparation. […] Data Analysis. […] The EC50 values of compounds were calculated from the concentration-response curves by nonlinear regression analysis using Prism software (GraphPad Software, San Diego, Calif.). Confirmatory cAMP Assay and Test for Selectivity Towards TSHR 50,000 cells/well were plated in complete media (DMEM containing 10% FCS) in 96 well plates. […] Following aspiration of the medium after incubation with compounds, cells were lysed using lysis buffer of the cAMP-Screen Direct™ System (Applied Biosystems, Cat # CSD200). The cAMP content of the cell lysate was determined using the manufacturer's protocol. […] Below is a List of Compounds that were Assayed via the Homogeneous Time Resolved Fluorescence (HTRF) cAMP Assay.

As usually defined, the AC50 is the concentration at which the activity in the assay is half-maximal.

T1 sequence (P16473 21-764): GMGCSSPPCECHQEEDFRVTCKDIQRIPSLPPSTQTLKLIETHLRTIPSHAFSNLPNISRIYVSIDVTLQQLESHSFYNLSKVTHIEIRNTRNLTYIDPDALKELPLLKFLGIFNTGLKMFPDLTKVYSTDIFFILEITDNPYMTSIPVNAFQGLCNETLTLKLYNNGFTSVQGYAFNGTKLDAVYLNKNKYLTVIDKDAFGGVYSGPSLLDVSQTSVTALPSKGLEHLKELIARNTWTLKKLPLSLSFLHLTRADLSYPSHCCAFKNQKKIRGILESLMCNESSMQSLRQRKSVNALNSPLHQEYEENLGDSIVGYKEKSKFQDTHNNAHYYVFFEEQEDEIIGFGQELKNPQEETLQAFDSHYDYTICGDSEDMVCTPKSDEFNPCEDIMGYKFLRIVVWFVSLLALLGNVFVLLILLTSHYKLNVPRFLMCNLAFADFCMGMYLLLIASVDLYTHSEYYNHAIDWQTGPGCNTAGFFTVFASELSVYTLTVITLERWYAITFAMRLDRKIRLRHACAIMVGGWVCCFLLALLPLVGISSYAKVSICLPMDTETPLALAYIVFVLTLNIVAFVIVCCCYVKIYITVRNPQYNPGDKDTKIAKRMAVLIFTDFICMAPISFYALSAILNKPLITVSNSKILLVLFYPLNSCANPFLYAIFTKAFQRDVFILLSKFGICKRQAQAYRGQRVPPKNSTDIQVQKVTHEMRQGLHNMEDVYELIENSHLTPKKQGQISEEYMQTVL

Take `COc1ccc(C2Nc3ccccc3C(=O)N2Cc2ccc(-c3ccccc3)cc2)cc1COc1ccc(NC(C)=O)cc1` (centres unmarked) [Structure 74]: the AC50 was 2.82 µM and the Emax was 36%.

In the case of `COc1ccc(CN(Cc2ccccc2)C(=O)c2cccc(C#N)c2)cc1COc1ccc(NC(C)=O)cc1` [Structure 75], the “Maximum Activity compared to TSH” value is given as 70.09 and the AC50 was determined as 20 µM. `COc1ccc(C2Cc3ccccc3C(=O)N2Cc2ccccc2)cc1COc1ccc(NC(C)=O)cc1` (centres unmarked) [Structure 76]: the “Maximum Activity compared to TSH” value turned out to be 64.77 and the AC50 was 6.31 µM. Taken in the same sequence, the figures for `COc1ccc(C2Nc3ccccc3C(=O)N2Cc2ccc(Cl)cc2)cc1COc1ccc(NC(C)=O)cc1` (centres unmarked) [Structure 77] were 68.63 and 3.16 µM. In the case of `COc1ccc(C2Oc3ccccc3C(=O)N2Cc2ccccc2)cc1COc1ccc(NC(C)=O)cc1` (centres unmarked) [Structure 78], the “Maximum Activity compared to TSH” value is 66.16 and the AC50 is 8.91 µM. Regarding `COc1ccc(C2Nc3ccccc3C(=O)N2Cc2cccc(-c3ccccc3)c2)cc1COc1ccc(NC(C)=O)cc1` (centres unmarked) [Structure 79], the “Maximum Activity compared to TSH” value is listed as 61.52 and the AC50 was found to be 1.78 µM. As to `COc1ccc(-c2nc3ccc(NC(=O)CO)cc3c(=O)n2Cc2cccc(Cl)c2)cc1COc1ccc(NC(C)=O)cc1` [Structure 80], the AC50 was determined as 22.4 µM and the Emax amounted to 40%.

Take `COc1ccc(CN(Cc2ccccc2)C(=O)C2CC2)cc1COc1ccc(NC(C)=O)cc1` [Structure 81]: the “Maximum Activity compared to TSH” value is recorded as 76.98 and the AC50 was determined as 15.8 µM. As for `COc1ccc(-c2nc3ccccc3c(=O)n2Cc2ccccc2)cc1CNc1ccc(CC(C)=O)cc1` [Structure 82], the AC50 amounted to 25.1 µM and the Emax was found to be 59%. Taken in the same sequence, the figures for `COc1ccc(C2Oc3ccc(NC(C)=O)cc3C(=O)N2Cc2cccc(Cl)c2)cc1COc1ccc(NC(C)=O)cc1` (centres unmarked) [Structure 83] were 7.08 µM and 79%.

Turning to `COc1ccc(C2N(Cc3ccccc3)C(=O)c3ccccc3N2C)cc1COc1ccc(NC(C)=O)cc1` (centres unmarked) [Structure 84], the “Maximum Activity compared to TSH” value came to 47.53 and the AC50 came to 7.94 µM. As for `COc1ccc([C@H]2[C@H](c3ccccc3)C(=O)N2Cc2ccccc2)cc1COc1ccc(NC(C)=O)cc1` [Structure 85], the “Maximum Activity compared to TSH” value is recorded as 54.95. Regarding `COc1ccc(C2Nc3ccccc3C(=O)N2Cc2cccc3ccccc23)cc1COc1ccc(NC(C)=O)cc1` (centres unmarked) [Structure 86], the “Maximum Activity compared to TSH” value was 51.11 and the AC50 was determined as 6.31 µM. For `COc1ccc(OCc2cc(C3Nc4ccccc4C(=O)N3Cc3ccccc3)ccc2OC)cc1` (centres unmarked) [Structure 87], the AC50 turned out to be 3.98 µM and the Emax worked out at 38%. Taken in the same sequence, the figures for `COc1ccc(C2Nc3ccccc3C(=O)N2Cc2ccccc2C(F)(F)F)cc1COc1ccc(NC(C)=O)cc1` (centres unmarked) [Structure 88] were 5.62 µM and 30.5%. Regarding `COc1ccc(C2Nc3ccccc3C(=O)N2Cc2ccco2)cc1COc1ccc(NC(C)=O)cc1` (centres unmarked) [Structure 89], the “Maximum Activity compared to TSH” value is on record as 129.12 and the AC50 was determined as 25.1 µM. For the compound `COc1ccc([C@H]2[C@H](c3ccccc3)C(=O)N2Cc2ccccc2)cc1COc1ccc(NC(C)=O)cc1` [Structure 90], the “Maximum Activity compared to TSH” value came out at 110.89.

On to `COc1ccc(C2Nc3ccccc3C(=O)N2Cc2ccco2)cc1COc1ccc(NC(C)=O)cc1` (centres unmarked) [Structure 91], for which the “Maximum Activity compared to TSH” value came to 88.07 and the AC50 was 15.8 µM. `COc1ccc(C(=O)N(Cc2ccccc2)Cc2cccs2)c(O)c1` [Structure 92]: the “Maximum Activity compared to TSH” value was 133.48 and the AC50 was found to be 31.6 µM. Take `COc1ccc(C(=O)N(Cc2ccccc2)Cc2cccs2)c(O)c1` [Structure 93]: the “Maximum Activity compared to TSH” value is given as 111.66 and the AC50 stood at 28.2 µM. In the case of `COc1ccc(C2Nc3ccccc3C(=O)N2Cc2ccco2)cc1COc1ccc(NC(C)=O)cc1` (centres unmarked) [Structure 94], the “Maximum Activity compared to TSH” value is 160.25 and the AC50 amounted to 25.1 µM. Consider `COc1ccc(-c2nc3ccccc3c(=O)n2Cc2ccccc2)cc1COc1ccc(NC(C)=O)cc1` [Structure 95], for which the “Maximum Activity compared to TSH” value worked out at 138.18 and the AC50 was 12.6 µM. As for `COc1ccc(CN(Cc2ccccc2)C(=O)c2ccco2)cc1COc1ccc(NC(C)=O)cc1` [Structure 96], the AC50 is 14.1 µM and the Emax is 125%. Turning to `COc1ccc(-c2nc3ccccc3c(=O)n2Cc2ccccc2)cc1COc1ccc(NC(C)=O)cc1` [Structure 97], the “Maximum Activity compared to TSH” value was determined as 132.18 and the AC50 amounted to 15.8 µM. Taken in the same sequence, the figures for `COc1ccc(CN(Cc2ccccc2)C(=O)c2ccccc2)cc1COc1ccc(NC(C)=O)cc1` [Structure 98] were 140.53 and 14.1 µM. On to `COc1ccc(C2Nc3ccccc3C(=O)N2Cc2cccnc2)cc1COc1ccc(NC(C)=O)cc1` (centres unmarked) [Structure 99], for which the AC50 came out at 35.5 µM and the Emax was determined as 104%. As to `COc1ccc(CN(Cc2ccccc2)C(=O)c2ccccc2N)cc1COc1ccc(NC(C)=O)cc1` [Structure 100], the “Maximum Activity compared to TSH” value amounted to 190.35 and the AC50 amounted to 35.5 µM.

As for `COc1ccc(C(=O)N(Cc2ccco2)Cc2cccs2)c(O)c1` [Structure 101], the “Maximum Activity compared to TSH” value is 128.51 and the AC50 is 28.2 µM.

`COc1ccc(C(=O)N(Cc2ccccc2)Cc2ccco2)c(O)c1` [Structure 102]: the half-maximal activity concentration (AC50) turned out to be 15.8 µM and the Emax worked out at 88.7%. With `COc1ccc(C(=O)N(Cc2cccs2)Cc2cccs2)c(O)c1` [Structure 103], the “Maximum Activity compared to TSH” value came out at 106.72 and the AC50 worked out at 15.8 µM. Taken in the same sequence, the figures for `COc1ccc(CN(Cc2ccccc2)C(=O)c2ccc(O)cc2)cc1COc1ccc(NC(C)=O)cc1` [Structure 104] were 122.31 and 39.8 µM. As to `COc1ccc(C2Nc3ccc(NC(C)=O)cc3C(=O)N2Cc2ccccc2)cc1COc1ccc(NC(C)=O)cc1` (centres unmarked) [Structure 105], the AC50 was found to be 17.8 µM and the Emax was 126%. Taken in the same sequence, the figures for `COc1ccc(C2Nc3cccc(OC)c3C(=O)N2Cc2ccccc2)cc1COc1ccc(NC(C)=O)cc1` (centres unmarked) [Structure 106] were 17.8 µM and 45.4%. Taken in the same sequence, the figures for `COc1ccc(C2Nc3ccccc3C(=O)N2Cc2ccc(CNC(=O)CO)cc2)cc1COc1ccc(NC(C)=O)cc1` (centres unmarked) [Structure 107] were 31.6 µM and 63.7%. On to `COc1ccc(C(=O)N(Cc2cccs2)Cc2cccs2)c(O)c1` [Structure 108], for which the “Maximum Activity compared to TSH” value came out at 63.12 and the AC50 turned out to be 15.8 µM. In the case of `COc1ccc(CNc2ccccc2C(=O)NCc2ccccc2)cc1COc1ccc(NC(C)=O)cc1` [Structure 109], the AC50 was determined as 17.8 µM and the Emax amounted to 47.5%.

As for `COc1ccc(-c2nc3ccc(NC(C)=O)cc3c(=O)n2Cc2cccc(Cl)c2)cc1COc1ccc(NC(C)=O)cc1` [Structure 110], the “Maximum Activity compared to TSH” value came to 48.00 and the AC50 was found to be 22.4 µM. Taken in the same sequence, the figures for `COc1ccc(C2Nc3ccccc3C(=O)N2Cc2cccnc2)cc1COc1ccc(NC(C)=O)cc1` (centres unmarked) [Structure 111] were 98.46 and 35.5 µM.

The values are drawn from patent publication US9458141B2, “Low molecular weight thyroid stimulating hormone receptor (TSHR) agonists” (The United States of America, as represented by the …, priority 2008, dated 2016).
